Data: ChEMBL document CHEMBL1158562, “Design, synthesis and structure-activity relationships of novel biarylamine-based Met kinase inhibitors” (Bioorg Med Chem Lett, 2010)
Calls of active or inactive are those of the source. The rule behind the calls is not given here.

Experiments:
[1] = Antiproliferative activity against human GTL16 cells after 72 hrs by tetrazolium-based colorimetric assay; details: GTL 16, 72 h
[2] = target: Hepatocyte growth factor receptor (Homo sapiens, UniProt P08581); assay: Inhibition of GST-tagged human recombinant c-met N terminal domain expressed in Hi5 insect cells after 60 mins by liquid scintillation counting
[3] = Cmax in mouse at 50 mg/kg, po for 8 hrs; format: ADME, organism-based; parameters: dose 50 mg/kg, route oral; details: in vivo
[4] = AUC (0 to 8 hrs) in mouse at 50 mg/kg, po; format: ADME, organism-based; parameters: time < 8 hr, dose 50 mg/kg, route oral; details: plasma
[5] = tested on: GTL 16; assay: Antitumor activity against human GTL16 cells xenografted in anthymic mouse administered po qd for 15 days; format: functional, organism-based
[6] = tested on: GTL 16; assay: Antitumor activity against human GTL16 cells xenografted in anthymic mouse assessed as complete tumor stasis at 25 mg/kg, po qd for 15 days; format: functional, organism-based; parameters: dose 25 mg/kg
[7] = target: T1, Receptor-type tyrosine-protein kinase FLT3 (Homo sapiens, UniProt P36888); assay: Inhibition of FLT3
T1 sequence (P36888 whole entry): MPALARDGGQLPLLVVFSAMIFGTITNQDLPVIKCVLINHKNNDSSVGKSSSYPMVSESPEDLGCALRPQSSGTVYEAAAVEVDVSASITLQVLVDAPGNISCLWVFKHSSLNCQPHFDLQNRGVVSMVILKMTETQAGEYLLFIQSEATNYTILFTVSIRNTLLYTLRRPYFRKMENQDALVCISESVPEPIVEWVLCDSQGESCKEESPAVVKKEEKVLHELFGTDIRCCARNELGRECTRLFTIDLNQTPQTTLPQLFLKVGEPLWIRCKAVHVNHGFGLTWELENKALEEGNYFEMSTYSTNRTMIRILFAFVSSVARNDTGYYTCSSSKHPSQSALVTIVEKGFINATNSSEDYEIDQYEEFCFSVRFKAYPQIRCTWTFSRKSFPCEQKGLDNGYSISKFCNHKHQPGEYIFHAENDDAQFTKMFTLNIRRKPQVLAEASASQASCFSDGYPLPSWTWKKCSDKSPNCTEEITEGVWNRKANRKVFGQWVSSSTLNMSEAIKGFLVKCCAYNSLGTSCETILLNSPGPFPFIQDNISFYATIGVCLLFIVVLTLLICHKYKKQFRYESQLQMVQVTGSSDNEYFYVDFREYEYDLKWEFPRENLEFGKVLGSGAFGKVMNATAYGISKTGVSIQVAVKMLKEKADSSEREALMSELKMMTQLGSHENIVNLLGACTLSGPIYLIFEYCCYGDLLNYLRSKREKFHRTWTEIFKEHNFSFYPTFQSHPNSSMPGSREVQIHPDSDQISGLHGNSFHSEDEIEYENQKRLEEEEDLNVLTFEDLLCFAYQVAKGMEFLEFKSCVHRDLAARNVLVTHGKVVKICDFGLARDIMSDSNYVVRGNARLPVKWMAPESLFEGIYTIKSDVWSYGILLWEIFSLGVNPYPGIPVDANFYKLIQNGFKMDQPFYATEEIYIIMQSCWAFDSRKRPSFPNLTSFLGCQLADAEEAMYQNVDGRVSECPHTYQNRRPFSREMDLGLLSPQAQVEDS

[8] = target: High affinity nerve growth factor receptor (Homo sapiens, UniProt P04629); assay: Inhibition of TrkA
[9] = target: Tyrosine-protein kinase Lck (Homo sapiens, UniProt P06239); assay: Inhibition of LcK
[10] = target: Insulin receptor (Homo sapiens, UniProt P06213); assay: Inhibition of InsR
[11] = target: MAP kinase-activated protein kinase 2 (Homo sapiens, UniProt P49137); assay: Inhibition of MK2
[12] = Inhibition of CDK2E
[13] = target: Protein kinase C alpha type (Homo sapiens, UniProt P17252); assay: Inhibition of PKCalpha

Insulin receptor, sequence (P06213 28-758 limits assumed): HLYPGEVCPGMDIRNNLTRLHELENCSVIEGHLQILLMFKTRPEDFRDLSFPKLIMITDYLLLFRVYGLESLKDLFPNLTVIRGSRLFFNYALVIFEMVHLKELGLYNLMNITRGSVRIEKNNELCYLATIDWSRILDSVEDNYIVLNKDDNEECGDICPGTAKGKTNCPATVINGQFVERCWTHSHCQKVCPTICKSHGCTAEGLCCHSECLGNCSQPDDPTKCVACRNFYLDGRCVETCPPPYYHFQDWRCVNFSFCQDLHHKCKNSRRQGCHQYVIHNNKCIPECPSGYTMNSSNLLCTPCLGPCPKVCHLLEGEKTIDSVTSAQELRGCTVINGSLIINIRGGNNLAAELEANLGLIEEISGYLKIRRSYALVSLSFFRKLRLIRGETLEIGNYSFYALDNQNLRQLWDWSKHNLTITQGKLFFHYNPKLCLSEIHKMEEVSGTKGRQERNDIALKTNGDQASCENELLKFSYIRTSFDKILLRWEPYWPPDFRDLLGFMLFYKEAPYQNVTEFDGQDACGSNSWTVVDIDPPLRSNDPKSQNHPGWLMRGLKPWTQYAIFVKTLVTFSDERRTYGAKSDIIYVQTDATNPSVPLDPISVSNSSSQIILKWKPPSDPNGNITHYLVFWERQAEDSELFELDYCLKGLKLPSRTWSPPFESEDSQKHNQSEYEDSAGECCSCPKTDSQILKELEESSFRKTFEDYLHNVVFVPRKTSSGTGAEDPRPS
Insulin receptor, sequence (P06213 763-1382 limits assumed): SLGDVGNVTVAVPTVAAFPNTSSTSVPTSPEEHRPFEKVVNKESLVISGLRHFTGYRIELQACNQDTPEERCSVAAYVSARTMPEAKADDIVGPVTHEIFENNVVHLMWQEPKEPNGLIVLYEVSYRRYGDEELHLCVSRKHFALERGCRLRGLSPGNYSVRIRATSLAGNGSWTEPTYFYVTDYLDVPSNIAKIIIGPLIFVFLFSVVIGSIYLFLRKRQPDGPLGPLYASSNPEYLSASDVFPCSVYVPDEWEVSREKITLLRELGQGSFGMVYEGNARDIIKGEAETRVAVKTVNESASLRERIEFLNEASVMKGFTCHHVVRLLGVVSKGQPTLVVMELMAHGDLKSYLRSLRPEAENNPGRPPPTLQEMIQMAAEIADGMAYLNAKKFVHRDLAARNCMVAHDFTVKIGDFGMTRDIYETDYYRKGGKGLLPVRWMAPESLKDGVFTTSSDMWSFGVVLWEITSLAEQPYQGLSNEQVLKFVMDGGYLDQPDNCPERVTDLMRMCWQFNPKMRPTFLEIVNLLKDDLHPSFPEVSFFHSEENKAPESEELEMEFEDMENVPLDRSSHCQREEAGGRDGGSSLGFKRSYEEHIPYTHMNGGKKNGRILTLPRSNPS
High affinity nerve growth factor receptor, sequence (P04629 whole entry): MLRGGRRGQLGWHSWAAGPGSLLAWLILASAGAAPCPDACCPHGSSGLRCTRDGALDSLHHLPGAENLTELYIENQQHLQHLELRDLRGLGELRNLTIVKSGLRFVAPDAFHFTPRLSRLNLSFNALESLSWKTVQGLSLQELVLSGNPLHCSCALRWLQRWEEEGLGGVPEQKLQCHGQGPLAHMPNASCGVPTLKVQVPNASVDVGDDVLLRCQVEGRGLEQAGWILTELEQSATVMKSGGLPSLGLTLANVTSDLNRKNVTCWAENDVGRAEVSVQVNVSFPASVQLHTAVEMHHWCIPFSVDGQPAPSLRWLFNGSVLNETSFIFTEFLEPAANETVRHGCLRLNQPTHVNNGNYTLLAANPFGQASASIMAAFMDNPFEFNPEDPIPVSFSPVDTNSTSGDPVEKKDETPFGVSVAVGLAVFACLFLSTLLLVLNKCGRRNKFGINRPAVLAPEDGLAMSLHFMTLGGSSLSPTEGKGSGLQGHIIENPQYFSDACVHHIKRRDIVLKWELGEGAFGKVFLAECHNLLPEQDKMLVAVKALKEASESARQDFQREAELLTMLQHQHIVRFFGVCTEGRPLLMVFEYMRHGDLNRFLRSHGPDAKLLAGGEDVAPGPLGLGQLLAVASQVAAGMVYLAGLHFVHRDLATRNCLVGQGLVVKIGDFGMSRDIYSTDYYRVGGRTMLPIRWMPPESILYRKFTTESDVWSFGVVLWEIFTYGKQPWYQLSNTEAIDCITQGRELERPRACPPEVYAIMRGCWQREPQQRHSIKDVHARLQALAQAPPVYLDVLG
MAP kinase-activated protein kinase 2, sequence (P49137 whole entry): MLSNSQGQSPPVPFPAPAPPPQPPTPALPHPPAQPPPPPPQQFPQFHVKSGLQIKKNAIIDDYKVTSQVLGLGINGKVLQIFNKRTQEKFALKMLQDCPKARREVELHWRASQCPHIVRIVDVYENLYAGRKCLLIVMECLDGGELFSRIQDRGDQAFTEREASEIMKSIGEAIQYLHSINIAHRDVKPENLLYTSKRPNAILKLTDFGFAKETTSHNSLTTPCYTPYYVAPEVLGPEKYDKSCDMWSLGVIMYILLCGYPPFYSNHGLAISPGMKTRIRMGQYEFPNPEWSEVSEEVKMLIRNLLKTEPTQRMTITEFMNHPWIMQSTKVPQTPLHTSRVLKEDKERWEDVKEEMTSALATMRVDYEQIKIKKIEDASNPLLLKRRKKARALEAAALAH
Hepatocyte growth factor receptor, sequence (P08581 whole entry, the tested form may be a part): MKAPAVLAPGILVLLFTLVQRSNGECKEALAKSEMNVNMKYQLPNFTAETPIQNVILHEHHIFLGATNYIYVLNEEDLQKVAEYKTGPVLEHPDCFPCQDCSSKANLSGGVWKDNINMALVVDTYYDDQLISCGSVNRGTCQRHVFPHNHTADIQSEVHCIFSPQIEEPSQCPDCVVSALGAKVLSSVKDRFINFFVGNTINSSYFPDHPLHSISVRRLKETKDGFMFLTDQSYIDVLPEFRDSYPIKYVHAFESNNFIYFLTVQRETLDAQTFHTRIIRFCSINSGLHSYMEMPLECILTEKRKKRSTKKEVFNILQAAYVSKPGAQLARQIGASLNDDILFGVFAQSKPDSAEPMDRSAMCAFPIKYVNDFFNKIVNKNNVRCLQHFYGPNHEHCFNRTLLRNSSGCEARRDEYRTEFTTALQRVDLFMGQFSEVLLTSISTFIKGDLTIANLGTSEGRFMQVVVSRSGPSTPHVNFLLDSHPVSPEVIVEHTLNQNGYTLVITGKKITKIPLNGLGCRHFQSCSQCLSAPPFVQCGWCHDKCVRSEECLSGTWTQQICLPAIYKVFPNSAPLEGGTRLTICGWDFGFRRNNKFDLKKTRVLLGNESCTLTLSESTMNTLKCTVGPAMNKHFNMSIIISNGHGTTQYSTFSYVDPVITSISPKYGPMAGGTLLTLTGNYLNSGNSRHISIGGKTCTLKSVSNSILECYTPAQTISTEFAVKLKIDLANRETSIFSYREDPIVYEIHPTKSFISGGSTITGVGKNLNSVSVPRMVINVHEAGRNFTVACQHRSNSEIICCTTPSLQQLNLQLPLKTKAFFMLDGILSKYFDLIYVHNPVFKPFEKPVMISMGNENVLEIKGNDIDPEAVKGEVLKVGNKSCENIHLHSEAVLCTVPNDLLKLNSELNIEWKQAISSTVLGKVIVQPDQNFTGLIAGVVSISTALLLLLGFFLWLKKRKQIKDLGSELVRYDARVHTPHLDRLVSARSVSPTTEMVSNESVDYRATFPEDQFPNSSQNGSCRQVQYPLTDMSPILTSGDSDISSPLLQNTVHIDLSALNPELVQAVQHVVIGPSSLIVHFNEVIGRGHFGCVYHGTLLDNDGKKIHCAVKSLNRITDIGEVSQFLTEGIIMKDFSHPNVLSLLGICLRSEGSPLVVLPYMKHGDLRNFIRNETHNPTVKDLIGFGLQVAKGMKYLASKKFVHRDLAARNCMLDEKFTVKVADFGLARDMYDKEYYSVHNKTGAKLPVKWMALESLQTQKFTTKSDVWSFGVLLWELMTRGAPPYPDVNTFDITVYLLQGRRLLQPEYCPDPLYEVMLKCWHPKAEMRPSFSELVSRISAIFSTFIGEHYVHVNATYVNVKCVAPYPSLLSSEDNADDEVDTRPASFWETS
Tyrosine-protein kinase Lck, sequence (P06239 whole entry): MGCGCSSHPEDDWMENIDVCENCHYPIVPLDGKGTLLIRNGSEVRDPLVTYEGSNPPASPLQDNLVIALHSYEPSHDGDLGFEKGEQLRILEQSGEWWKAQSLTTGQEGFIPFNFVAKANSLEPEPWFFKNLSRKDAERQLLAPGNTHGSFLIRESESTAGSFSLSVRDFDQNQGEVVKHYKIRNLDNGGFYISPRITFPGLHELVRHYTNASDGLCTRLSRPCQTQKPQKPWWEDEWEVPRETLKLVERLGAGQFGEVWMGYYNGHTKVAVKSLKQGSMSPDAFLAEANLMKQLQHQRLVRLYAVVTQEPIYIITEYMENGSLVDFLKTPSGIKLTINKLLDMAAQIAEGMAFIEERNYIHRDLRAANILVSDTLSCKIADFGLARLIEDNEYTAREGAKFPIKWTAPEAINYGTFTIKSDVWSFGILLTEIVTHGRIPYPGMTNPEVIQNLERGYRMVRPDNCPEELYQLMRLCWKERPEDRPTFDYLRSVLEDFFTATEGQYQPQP

| Structure (SMILES) | IC50 [1] | further results |
| --- | --- | --- |
| CN(C(=O)c1cccnc1Nc1ccc(Oc2ccnc3[nH]ccc23)c(F)c1)c1ccc(F)cc1 | 5580 nM |  |
| CN(C)c1ncc(C(=O)Nc2ccc(F)cc2F)c(Nc2ccc(Oc3ccnc(N)c3)c(F)c2)n1 | > 10000 nM |  |
| O=C(Nc1ccc(F)cc1F)c1cnccc1Nc1ccc(Oc2ccnc3[nH]ccc23)c(F)c1 | > 10000 nM |  |
| O=C(Nc1ccc(F)cc1F)c1cccnc1Nc1ccc(Oc2ccnc3[nH]ccc23)c(F)c1 | 210 nM | IC50 [2]: 7 nM; Cmax [3]: 9.3 µM; AUC(0-t) at 8 h [4]: 42 µM·h; Activity [5]: Dose-dependent effect; Activity [6]: Active; IC50 [7]: 120 nM; IC50 [8]: 350 nM; IC50 [9]: > 50 µM; IC50 [10]: > 50 µM; IC50 [11]: > 50 µM; IC50 [12]: > 50 µM; IC50 [13]: > 50 µM |
| Nc1cc(Oc2ccc(Nc3ncccc3C(=O)Nc3ccc(Cl)cc3)cc2F)ccn1 | 1160 nM |  |
| CSc1ncc(C(=O)Nc2ccc(F)cc2F)c(Nc2ccc(Oc3ccnc(N)c3)c(F)c2)n1 | 440 nM |  |
| Cc1ccc(C(=O)Nc2ccc(F)cc2F)c(Nc2ccc(Oc3ccnc4[nH]ccc34)c(F)c2)n1 | 2400 nM |  |
| Nc1cc(Oc2ccc(Nc3ncccc3C(=O)Nc3ccc(F)cc3F)cc2F)ccn1 | 900 nM |  |
| O=C(Nc1ccc(F)cc1F)c1nccnc1Nc1ccc(Oc2ccnc3[nH]ccc23)c(F)c1 | 7150 nM |  |
| O=C(Nc1ccccc1Cl)c1cccnc1Nc1ccc(Oc2ccnc3[nH]ccc23)c(F)c1 | 1200 nM |  |
| Nc1cc(Oc2ccc(Nc3ncncc3C(=O)Nc3ccc(F)cc3F)cc2F)ccn1 | 1930 nM |  |
| O=C(Nc1ccc(F)cc1F)c1cc(Br)cnc1Nc1ccc(Oc2ccnc3[nH]ccc23)c(F)c1 | 640 nM |  |
| O=C(Nc1ccccc1)c1cccnc1Nc1ccc(Oc2ccnc3[nH]ccc23)c(F)c1 | 460 nM |  |
| Cc1ccccc1NC(=O)c1cccnc1Nc1ccc(Oc2ccnc3[nH]ccc23)c(F)c1 | 420 nM |  |
| O=C(Nc1ccc(F)cn1)c1cccnc1Nc1ccc(Oc2ccnc3[nH]ccc23)c(F)c1 | 270 nM |  |
| Nc1cc(Oc2ccc(Nc3ncc(Br)cc3C(=O)Nc3ccc(F)cc3F)cc2F)ccn1 | 590 nM |  |
| Nc1cc(Oc2ccc(Nc3nccnc3C(=O)Nc3ccc(F)cc3F)cc2F)ccn1 | 2730 nM |  |
| O=C(Nc1ccccc1CCO)c1cccnc1Nc1ccc(Oc2ccnc3[nH]ccc23)c(F)c1 | 400 nM |  |
